Results from patent publication EP3383875B1, “3-PYRIMIDINYL PYRROLO [2,3-B] PYRIDINE AS ANTICANCER AGENTS AND THE PROCESS FOR THE PREPARATION THEREOF” (Council Of Scientific & Industrial Research, priority 2015, dated 2017).
Like-named read-outs stand apart in the source and are kept apart here.

Assays:
[1] = target: CDK-2/cyclin A (Homo sapiens, UniProt P24941); test: CDK inhibition assay, CDK-2/cyclin A against Histone HI, 33P-ATP; format: biochemical; conditions: at 500 nM
How it was run: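 CDK-2/cyclin A (5-20 mU) phosphorylating Histone HI (1 mg/ml) in 50 mM Hepes pH 7.5, 100 mM NaCl, 10 mM Mg acetate, 0.02 mM [33P-γ-ATP], 30 min at room temperature. Stopped with orthophosphoric acid, captured on P81 filters for radiometric readout.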

[2] = target: CDK-9/Cyclin T1 (Homo sapiens, UniProt P50750); test: CDK inhibition assay, CDK-9/Cyclin T1 against substrate peptide, 33P-ATP; format: biochemical; conditions: at 500 nM
Description: (50-1000 cpm/pmole) and incubated for 30 min at room temperature. Assays were stopped by addition of 5 µl of 0.5 M (3%) orthophosphoric acid and then harvested onto P81 Unifilter plates with a wash buffer of 50 mM orthophosphoric acid.

[3] = tested on: MCF-7; test: MTT assay on cancer cell line MCF-7; format: cell-based, Human; conditions: Homo sapiens
Description: (§1) Cell culture, growth conditions and treatments. […] Different molecules were dissolved in DMSO and were delivered to cell cultures in complete medium.

[4] = tested on: PC-3; test: MTT assay on cancer cell line PC-3; format: cell-based, human; conditions: Homo sapiens
Description: as §1

[5] = tested on: MDA-MB435; test: MTT assay on cancer cell line MDA-MB435; format: cell-based, Human; conditions: Homo sapiens, MDA-MB-435, MDA-MB435, at 10µM, read-out: In vitro cell inhibition, % of inhibition, MDA-MB435
Description: as §1

[6] = tested on: HCT-116; test: MTT assay on cancer cell line HCT-116; format: cell-based, human; conditions: Homo sapiens, at 10µM
Description: as §1

[7] = tested on: SHSY-5Y; test: MTT assay on cancer cell line SHSY-5Y; format: cell-based, human; conditions: Homo sapiens, SH-SY5Y
Description: as §1

[8] = Table-6, read-out: In vitro CDK2 % of inhibition
[9] = Table-6, read-out: In vitro CDK9 % of inhibition
[10] = MCF7, MCF-7, Table 8, read-out: In vitro cell inhibition, % of inhibition, MCF-7
[11] = MCF7, read-out: inhibition against MCF-7 cell lines
[12] = Table 8, read-out: In vitro cell inhibition, % of inhibition, PC-3
[13] = Table 8, read-out: In vitro cell inhibition, % of inhibition, HCT-116
[14] = SHSY-5Y, Table 8, read-out: In vitro cell inhibition, % of inhibition, SHSY-5Y
[15] = read-out: inhibition against SHSY-5Y cell lines
[16] = Table-7, read-out: In vitro CDK2 % of inhibition
[17] = read-out: inhibition against CDK2
[18] = Table-7, read-out: In vitro CDK9 % of inhibition
[19] = read-out: inhibition against CDK9

Chain of CDK-9/Cyclin T1 (P50750 whole entry): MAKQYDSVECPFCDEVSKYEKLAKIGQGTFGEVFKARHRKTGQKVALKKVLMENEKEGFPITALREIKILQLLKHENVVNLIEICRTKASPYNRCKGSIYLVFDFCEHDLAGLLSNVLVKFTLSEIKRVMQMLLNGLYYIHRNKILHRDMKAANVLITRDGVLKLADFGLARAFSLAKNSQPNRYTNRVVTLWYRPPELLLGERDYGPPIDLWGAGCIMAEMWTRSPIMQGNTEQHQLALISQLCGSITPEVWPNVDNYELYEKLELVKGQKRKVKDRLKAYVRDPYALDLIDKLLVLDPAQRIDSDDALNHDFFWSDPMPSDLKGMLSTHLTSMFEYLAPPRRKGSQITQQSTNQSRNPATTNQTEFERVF
Chain of CDK-9/Cyclin T1 (O60563 whole entry partner): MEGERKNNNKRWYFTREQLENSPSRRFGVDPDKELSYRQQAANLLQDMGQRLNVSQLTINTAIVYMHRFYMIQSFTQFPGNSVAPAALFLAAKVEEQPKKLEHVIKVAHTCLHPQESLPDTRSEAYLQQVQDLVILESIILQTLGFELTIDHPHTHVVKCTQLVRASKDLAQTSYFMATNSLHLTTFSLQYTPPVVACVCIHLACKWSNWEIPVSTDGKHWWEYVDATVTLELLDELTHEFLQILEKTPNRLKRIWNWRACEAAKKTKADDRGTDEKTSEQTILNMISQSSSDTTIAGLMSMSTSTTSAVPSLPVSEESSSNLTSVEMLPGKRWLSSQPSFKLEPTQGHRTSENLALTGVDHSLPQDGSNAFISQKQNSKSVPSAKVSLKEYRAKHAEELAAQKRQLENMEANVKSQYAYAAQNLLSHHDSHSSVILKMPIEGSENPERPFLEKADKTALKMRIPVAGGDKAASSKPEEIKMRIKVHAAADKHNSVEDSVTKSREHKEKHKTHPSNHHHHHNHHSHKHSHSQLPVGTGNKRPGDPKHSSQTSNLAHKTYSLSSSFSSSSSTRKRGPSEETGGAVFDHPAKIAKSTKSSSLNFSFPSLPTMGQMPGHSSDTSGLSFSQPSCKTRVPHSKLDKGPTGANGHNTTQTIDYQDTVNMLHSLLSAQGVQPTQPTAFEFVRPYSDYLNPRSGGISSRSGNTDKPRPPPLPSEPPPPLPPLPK

Row | Structure (SMILES) | inhibition at 0.5 µM [1, 8] | inhibition at 0.5 µM [2, 9] | inhibition at 10 µM [3, 10] | inhibition at 10 µM [3, 11] | inhibition at 10 µM [4, 12] | inhibition at 10 µM ([5]; Table 8) | inhibition at 10 µM [6, 13] | inhibition at 10 µM [7, 14] | inhibition at 10 µM [7, 15] | inhibition at 0.5 µM [1, 16] | inhibition at 0.5 µM [1, 17] | inhibition at 0.5 µM [2, 18] | inhibition at 0.5 µM [2, 19] | inhibition at 10 µM ([3]; MCF7, MCF-7, Table 9 (for reference), read-out: In vitro cell inhibition, % of inhibition, MCF-7) | inhibition at 10 µM ([4]; Table 9 (for reference), read-out: In vitro cell inhibition, % of inhibition, PC-3) | inhibition at 10 µM ([5]; Table 9 (for reference)) | inhibition at 10 µM ([6]; Table 9 (for reference), read-out: In vitro cell inhibition, % of inhibition, HCT-116) | inhibition at 10 µM ([7]; SHSY-5Y, Table 9 (for reference), read-out: In vitro cell inhibition, % of inhibition, SHSY-5Y) | inhibition at 10 µM ([4]; read-out: inhibition against PC-3 cell lines)
1 | FC(F)(F)c1ccc(-c2cnc3[nH]cc(-c4ccnc(NC5CCCCCC5)n4)c3c2)cc1 [1A41, N-cycloheptyl-4-(5-(4-(trifluoromethyl)phenyl)-1H-pyrrolo[2,3-b]pyridin-3-yl)pyrimidin-2-amine] | < 50% | < 50% | > 50% | > 50% | < 50% | < 50% | > 50% | > 70% | > 70% | – | – | – | – | – | – | – | – | – | –
2 | Nc1nccc(-c2c[nH]c3ncc(-c4cccc(C(F)(F)F)c4)cc23)n1 [1C4, 4-(5-(3-(trifluoromethyl)phenyl)-1H-pyrrolo[2,3-b]pyridin-3-yl)pyrimidin-2-amine] | – | – | – | > 70% | – | – | – | – | > 70% | > 70% | > 70% | > 70% | > 70% | > 70% | < 50% | > 70% | > 70% | > 70% | –
3 | COc1ccc(-c2cnc3[nH]cc(-c4ccnc(NCCc5ccccc5)n4)c3c2)cc1 [1B11, 4-(5-(4-methoxyphenyl)-1H-pyrrolo[2,3-b]pyridin-3-yl)-N-phenethylpyrimidin-2-amine] | – | – | > 50% | > 50% | < 50% | > 50% | > 50% | > 50% | – | > 50% | > 50% | > 50% | > 50% | – | – | – | – | – | –
4 | COc1ccc(-c2cnc3[nH]cc(-c4ccnc(NC5CCCC5)n4)c3c2)cc1 [1A31, N-cyclopentyl-4-(5-(4-methoxyphenyl)-1H-pyrrolo-[2,3-b]pyridin-3-yl)pyrimidin-2-amine] | > 50% | > 50% | < 50% | < 50% | > 50% | > 50% | > 50% | > 70% | > 70% | – | > 50% | – | > 50% | – | – | – | – | – | > 50%
